Laboratory results from patent US8557796B2, “Substituted 1-oxa-2,8-diaza-spiro [4,5] dec-2-ene derivatives and related treatment methods” (Gruenenthal GmbH, priority 2001, dated 2013).

Molecular target: T1, NA transporter (Rattus norvegicus, UniProt Q9WTR4)
T1 construct: synaptosomes from rat brain regions were freshly isolated; from tissue; host or cells: P2 synaptosome fraction from hypothalamus of male rat brain
Experiment: Noradrenalin uptake inhibition (NA-uptake) in synaptosomes
Format: biochemical
Conditions: rat hypothalamus synaptosomes
Description: Tests on Noradrenalin Uptake Inhibition (NA-Uptake Inhibition)
In order to be able to carry out these in vitro studies, synaptosomes from rat brain regions were freshly isolated.

T1 sequence (Q9WTR4 1-597): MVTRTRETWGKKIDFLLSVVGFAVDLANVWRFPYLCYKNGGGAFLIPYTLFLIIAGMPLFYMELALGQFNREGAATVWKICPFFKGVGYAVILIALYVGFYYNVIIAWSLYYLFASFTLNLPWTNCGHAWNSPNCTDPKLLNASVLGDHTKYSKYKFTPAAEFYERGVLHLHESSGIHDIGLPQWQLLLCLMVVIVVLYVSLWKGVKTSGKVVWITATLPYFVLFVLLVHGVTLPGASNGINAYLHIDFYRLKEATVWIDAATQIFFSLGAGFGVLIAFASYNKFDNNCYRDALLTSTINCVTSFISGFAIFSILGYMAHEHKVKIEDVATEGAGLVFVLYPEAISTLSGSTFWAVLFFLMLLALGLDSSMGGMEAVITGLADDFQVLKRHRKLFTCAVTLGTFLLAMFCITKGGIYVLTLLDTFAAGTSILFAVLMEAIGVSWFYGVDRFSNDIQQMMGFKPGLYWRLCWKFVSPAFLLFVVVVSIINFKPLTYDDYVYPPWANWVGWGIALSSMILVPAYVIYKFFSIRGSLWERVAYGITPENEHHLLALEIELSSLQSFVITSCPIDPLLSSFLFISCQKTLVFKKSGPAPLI

O=C(NCc1ccccc1)C1=NOC2(CCN(C(=O)c3ccc(F)c(Cl)c3)CC2)C1 [Example 205, 8-(3-chloro-4-fluorobenzoyl)-1-oxa-2,8-diaza-spiro[4,5]dec-2-ene-3-carboxylic acid benzylamide]
inhibition at 10 µM: 46%

O=C(NCc1cccc2ccccc12)C1=NOC2(CCN(S(=O)(=O)c3ccc(Cl)s3)CC2)C1 [Example 128, 8-(5-chloro-thiophene-2-sulphonyl)-1-oxa-2,8-diaza-spiro[4,5]dec-2-ene-3-carboxylic acid naphthalen-l-ylmethyl-amide]
NA-uptake, 10 μM, % inhibition: 45%

O=C(NCCN1CCCC1)C1=NOC2(CCN(S(=O)(=O)c3ccc(F)c(Cl)c3)CC2)C1 [Example 11]
NA-uptake, 10 μM, % inhibition: 41%

COc1ccc(C(=O)N2CCC3(CC2)CC(C(=O)NCc2ccccc2)=NO3)cc1 [Example 131, 8-(4-methoxy-benzoyl)-1-oxa-2,8-diaza-spiro[4,5]dec-2-ene-3-carboxylic acid benzylamide]
inhibition at 10 µM: 57%

Cc1ccc(S(=O)(=O)N2CCC3(CC2)CC(C(=O)NC2CC2c2ccccc2)=NO3)cc1 (stereo not drawn) [Example 75, 8-(toluene-4-sulphonyl)-1-oxa-2,8-diaza-spiro[4,5]dec-2-ene-3-carboxylic acid (2-phenyl-cyclopropyl)-amide]
inhibition at 10 µM: 65%

O=C(NCc1cccs1)C1=NOC2(CCN(S(=O)(=O)c3ccc([N+](=O)[O-])cc3)CC2)C1 [Example 38, 8-(4-nitro-benzenesulphonyl)-1-oxa-2,8-diaza-spiro[4,5]dec-2-ene-3-carboxylic acid (thiophen-2-ylmethyl)-amide]
inhibition at 10 µM: 44%

O=C(NCc1cccs1)C1=NOC2(CCN(C(=O)COc3cccc(Cl)c3)CC2)C1 [Example 96, 8-[2-(3-chloro-phenoxy)-acetyl]-1-oxa-2,8-diaza-spiro[4,5]dec-2-ene-3-carboxylic acid (thiophen-2-ylmethyl)-amide]
inhibition at 10 µM: 49%

O=C(C1=NOC2(CCN(S(=O)(=O)c3cccc(C(F)(F)F)c3)CC2)C1)N1CCN(c2cc(C(F)(F)F)ccn2)CC1 [Example 119]
NA-uptake, 10 μM, % inhibition: 43%

O=C(NCC1CC1)C1=NOC2(CCN(C(=O)CCCOc3ccccc3)CC2)C1 [Example 118, 8-(4-phenoxy-butyryl)-1-oxa-2,8-diaza-spiro[4,5]dec-2-ene-3-carboxylic acid cyclopropylmethyl-amide]
inhibition at 10 µM: 46%

Cc1ccc(C(C)NC(=O)C2=NOC3(CCN(S(=O)(=O)c4cccs4)CC3)C2)cc1 (stereo not drawn) [Example 23, 8-(thiophene-2-sulphonyl)-1-oxa-2,8-diaza-spiro[4,5]dec-2-ene-3-carboxylic acid (1-p-tolyl-ethyl)-amide]
inhibition at 10 µM: 49%

Cc1ccc(S(=O)(=O)N2CCC3(CC2)CC(C(=O)N(CCc2ccccc2)Cc2ccccc2)=NO3)cc1 [Example 18, 8-(toluene-4-sulphonyl)-1-oxa-2,8-diaza-spiro[4,5]dec-2-ene-3-carboxylic acid benzyl-phenethyl-amide]
inhibition at 10 µM: 64%

Cc1ccc(S(=O)(=O)N2CCC3(CC2)CC(C(=O)N2CCN(C(C)c4ccccc4)CC2)=NO3)cc1 (stereo not drawn) [Example 32, [4-(1-phenyl-ethyl)-piperazin-l-yl]-[8-(toluene-4-sulphonyl)-1-oxa-2,8-diaza-spiro[4,5]dec-2-en-3-yl]-methanone]
NA-uptake, 10 μM, % inhibition: 43%

CN(C)S(=O)(=O)N1CCC2(CC1)CC(C(=O)N1CCN(CCCc3ccccc3)CC1)=NO2 [Example 80, 3-[4-(3-phenyl-propyl)-piperazine-1-carbonyl]-1-oxa-2,8-diaza-spiro[4,5]dec-2-ene-8-sulphonic acid dimethylamide]
inhibition at 10 µM: 60%

Cc1ccc(F)c(C(=O)N2CCC3(CC2)CC(C(=O)NCc2cccs2)=NO3)c1F [Example 170, 8-(2,6-difluoro-3-methyl-benzoyl)-1-oxa-2,8-diaza-spiro[4,5]dec-2-ene-3-carboxylic acid (thiophen-2-ylmethyl)-amide]
inhibition at 10 µM: 43%

O=C(NCc1cccs1)C1=NOC2(CCN(C(=O)c3ccc(Br)cc3)CC2)C1 [Example 141]
NA-uptake, 10 μM, % inhibition: 61%
